Test results from patent US8951529B2, “Methods of using small compounds to enhance myeloid derived suppressor cell function for treating autoimmune diseases” (Icahn School of Medicine at Mount Sinai, priority 2009, dated 2015).

Key:
Gr-1+/CD115+ MDSCs = test: HA-TCR T-cell proliferation with MDSCs and MAP kinase activator or inhibitors; format: cell-based, mouse; details: HA peptide, three days, viable T cell count, FIG. 13A
Procedure: To determine whether MAP kinase is involved in MDSC-mediated T cell suppression and Treg activation, monocytic MDSCs (Gr-1+/CD115+) were purified from spleen of tumor bearing mice and the suppressive function was evaluated. Purified T cells from HA-TCR transgenic T cells were cultured in the presence or absence of irradiated purified Gr-1+/CD115+ MDSCs from tumor-bearing mice, irradiated splenocytes from naïve mice as antigen presenting cells, anisomycin, various inhibitors, and HA peptide (0.5 μg/m1). Three days later, T cell proliferation was assessed by counting viable (trypan blue negative) total T cell number. Proliferation percentages were calculated by the number of experimental group divided by the number of T cell without MDSC, anisomycin or inhibitors (SB, PD). *p<0.05 by ANOVA t-test (FIG. 13A).

MDSCs = test: Foxp3 RT-PCR of MDSC-activated T regulatory cells with MAP kinase activator or inhibitors; format: cell-based, mouse; details: FIG. 13B
Procedure: The expression of Foxp3 and actin (as internal control) was determined by RT-PCR in MDSC-activated T regulatory cells in the presence of p38 MAP kinase activator, anisomycin, p38 MAP kinase inhibitor, SB, and Erk inhibitor, PD (FIG. 13B).

DSS-induced colitis = DSS-induced colitis in vivo model; design: species or system C57BL/6 mice; details: day 11, in comparison with naive healthy mice, FIG. 5C
From the text: In certain aspects, the invention is related to the treatment of IBDs. Mouse models of IBD are well known in the art, and may be used to model human IBDs. For example, dextran sodium sulfate (DSS) may be administered to mice to induce IBD. In this model, mice are fed with water containing 3.5% DSS from day 0 to day 11. Following treatment, mice develop colitis. The severity of colitis is quantified (assigned a clinical score) by assessing stool consistency, bleeding, and weight loss, which ranges from 0 (healthy) to 4 (maximal severity). Histologically, DSS produces submucosal erosions, ulceration, inflammatory cell infiltration and crypt abscess as well as epithelioglandular hyperplasia. […] [Kawada et al., 2007, World J. Gastroenterol. 13: 5581-5593; Okayasu et al., 1990, Gastroenterology 98:694-702]
For adoptive transfer of MDSCs, 5×10^6 purified MDSCs suspended in PBS were administered by intravenous infusion at day 0 and day 7.
Mice were left untreated or treated with sorted MDSCs (5×10^6 cells/mouse) alone or in combination with GA and/or SP600125 (Sigma-Aldrich), on the day of disease induction. […] The severity of colitis was quantitated as a clinical score by assessing stool consistency, bleeding, and weight loss, which ranges from 0 (healthy) to 4 (maximal severity). The clinical score (weight loss, stool consistency, and bleeding) of treated mice was assessed in a double-blind fashion.
On day 11 post-IBD induction, colon tissues from treated mice were removed, fixed in 3% formaldehyde, sectioned, and stained with H&E staining to determine the pathology score of colitis. To reflect the general condition of the mice, a disease activity index (DAI) was determined by an investigator blinded to the protocol by scoring the extent of body weight loss, stool guaiac positivity or gross bleeding, and stool consistency according to the method described in Murthy et al. (1993) “Treatment of Dextran Sulfate Sodium-Induced Murine Colitis by Intracolonic Cyclosporin,” Digest. […] Stool consistency and the degree of blood in stool were evaluated on the day when animals were killed. […]

SMILES	MDSC suppression of HA-TCR T-cell proliferation (Gr-1+/CD115+ MDSCs)	Treg induction by MDSCs as assessed by Foxp3 expression by RT-PCR (MDSCs)	decrease in colonic length (DSS-induced colitis)
C[S+]([O-])c1ccc(-c2nc(-c3ccc(F)cc3)c(-c3ccncc3)[nH]2)cc1 (stereo not shown) [SB203580, 4-(4-Fluorophenyl)-2-(4-methylsulfinylphenyl)-5-(4-pyridyl)-1H-imidazole]	not reverted or enhanced	not significantly different	
COc1cccc(-c2cc(=O)c3ccccc3o2)c1N [PD98059, 2-(2-Amino-3-methoxyphenyl)-4H-1-benzopyran-4-one]	not reverted or enhanced	not significantly different	
Oc1c2ccccc2c2c3c(cccc13)N=N2 [SP600125, 1,9-Pyrazoloanthrone]			51.6%
COc1ccc(C[C@H]2NC[C@H](O)[C@H]2OC(C)=O)cc1 [anisomycin]	reverted the suppressive activity	decreased Treg induction	
